Source: US7576215B2, “Quinolines and pharmaceutical compositions thereof” (Wyeth, priority 2003, dated 2009)

SMILES | melting point
COC(=O)/C=C/c1ccc(COc2cccc(-c3c(-c4ccccc4)cnc4c(C(F)(F)F)cccc34)c2)cc1 | 91 °C
COC(=O)/C=C/c1ccc(COc2cc(-c3c(-c4ccccc4)cnc4c(C(F)(F)F)cccc34)ccc2Cl)cc1 | 149 to 151 °C
O=C(O)/C=C/c1ccc(COc2cc(-c3c(-c4ccccc4)cnc4c(C(F)(F)F)cccc34)ccc2Cl)cc1 | 257 °C
O=S(=O)(c1ccccc1)c1cnc2c(C(F)(F)F)cccc2c1-c1ccccc1 | 149 to 151 °C
Cc1ccccc1-c1cnc2c(C(F)(F)F)cccc2c1-c1cccc(NC(=O)Nc2ccccc2)c1 | 192 to 195 °C
Cc1ccccc1-c1cnc2c(C(F)(F)F)cccc2c1-c1cccc(NC(=O)Nc2ccccc2Cl)c1 | 224 to 226 °C
OCCc1ccc(COc2cccc(-c3c(-c4ccccc4)cnc4c(C(F)(F)F)cccc34)c2)cc1 | 50 °C
Cc1ccccc1-c1cnc2c(C(F)(F)F)cccc2c1-c1cccc(N)c1 | 148 to 151 °C
O=C(Nc1ccccc1)c1cnc2c(C(F)(F)F)cccc2c1-c1ccccc1 [Example 72, N, 4-DIPHENYL-8-(TRIFLUOROMETHYL)QUINOLINE-3-CARBOXAMIDE] | 207 to 208 °C
O=C(Nc1ccccc1)Nc1cccc(-c2c(-c3ccccc3)cnc3c(C(F)(F)F)cccc23)c1 [Example 75, N-PHENYL-N′-{3-[3-PHENYL-8-(TRIFLUOROMETHYL)QUINOLIN-4-YL]PHENYL}UREA] | 202 to 205 °C
O=C(Nc1cccc(-c2c(-c3ccccc3)cnc3c(C(F)(F)F)cccc23)c1)Nc1ccccc1Cl [Example 76, N-(2-CHLOROPHENYL)-N′-{3-[3-PHENYL-8-(TRIFLUOROMETHYL)QUINOLIN-4-YL]PHENYL}UREA] | 192 to 195 °C
Cc1ccc(NC(=O)c2cnc3c(C(F)(F)F)cccc3c2-c2ccccc2)cc1 [Example 368, N-(4-METHYLPHENYL)-4-PHENYL-8-(TRIFLUOROMETHYL)QUINOLINE-3-CARBOXAMIDE] | 203 to 205 °C
Cc1cccc(NC(=O)c2cnc3c(C(F)(F)F)cccc3c2-c2ccccc2)c1 [Example 370, N-(3-METHYLPHENYL)-4-PHENYL-8-(TRIFLUOROMETHYL)QUINOLINE-3-CARBOXAMIDE] | 182 to 184 °C
O=C(Nc1cccc(C(F)(F)F)c1)c1cnc2c(C(F)(F)F)cccc2c1-c1ccccc1 [Example 371, 4-PHENYL-8-(TRIFLUOROMETHYL)-N-[3-(TRIFLUOROMETHYL)PHENYL]QUINOLINE-3-CARBOXAMIDE] | 155 to 157 °C
O=C(Nc1ccc(Cl)cc1)c1cnc2c(C(F)(F)F)cccc2c1-c1ccccc1 [Example 372, N-(4-CHLOROPHENYL)-4-PHENYL-8-(TRIFLUOROMETHYL)QUINOLINE-3-CARBOXAMIDE] | 153 to 155 °C
O=C(Nc1cccc(Cl)c1)c1cnc2c(C(F)(F)F)cccc2c1-c1ccccc1 [Example 373, N-(3-CHLOROPHENYL)-4-PHENYL-8-(TRIFLUOROMETHYL)QUINOLINE-3-CARBOXAMIDE] | 159 to 161 °C
O=C(Nc1ccccc1Cl)c1cnc2c(C(F)(F)F)cccc2c1-c1ccccc1 [Example 374, N-(2-CHLOROPHENYL)-4-PHENYL-8-(TRIFLUOROMETHYL)QUINOLINE-3-CARBOXAMIDE] | 173 to 175 °C

SMILES | melting point
O=C(Nc1ccc(F)cc1)c1cnc2c(C(F)(F)F)cccc2c1-c1ccccc1 [Example 376, N-(4-FLUOROPHENYL)-4-PHENYL-8-(TRIFLUOROMETHYL)QUINOLINE-3-CARBOXAMIDE] | 157 to 159 °C
O=C(Nc1cccc(F)c1)c1cnc2c(C(F)(F)F)cccc2c1-c1ccccc1 [Example 377, N-(3-FLUOROPHENYL)-4-PHENYL-8-(TRIFLUOROMETHYL)QUINOLINE-3-CARBOXAMIDE] | 171 to 173 °C
CN(C(=O)c1cnc2c(C(F)(F)F)cccc2c1-c1ccccc1)c1ccccc1 [Example 378, N-METHYL-N,4-DIPHENYL-8-(TRIFLUOROMETHYL)QUINOLINE-3-CARBOXAMIDE] | 188 to 190 °C
Cc1cccc(N(C)C(=O)c2cnc3c(C(F)(F)F)cccc3c2-c2ccccc2)c1 [Example 379, N-METHYL-N-(3-METHYLPHENYL)-4-PHENYL-8-(TRIFLUOROMETHYL)QUINOLINE-3-CARBOXAMIDE] | 174 to 176 °C
Cc1ccc(N(C)C(=O)c2cnc3c(C(F)(F)F)cccc3c2-c2ccccc2)cc1 [Example 380, N-METHYL-N-(4-METHYLPHENYL)-4-PHENYL-8-(TRIFLUOROMETHYL)QUINOLINE-3-CARBOXAMIDE] | 143 to 145 °C
Cc1ccccc1N(C)C(=O)c1cnc2c(C(F)(F)F)cccc2c1-c1ccccc1 [Example 381, N-METHYL-N-(2-METHYLPHENYL)-4-PHENYL-8-(TRIFLUOROMETHYL)QUINOLINE-3-CARBOXAMIDE] | 144 °C
CN(C(=O)c1cnc2c(C(F)(F)F)cccc2c1-c1ccccc1)c1cccc(C(F)(F)F)c1 [Example 382, N-METHYL-4-PHENYL-8-(TRIFLUOROMETHYL)-N-[3-(TRIFLUOROMETHYL)PHENYL]QUINOLINE-3-CARBOXAMIDE] | 163 to 165 °C
CN(C(=O)c1cnc2c(C(F)(F)F)cccc2c1-c1ccccc1)c1ccc(Cl)cc1 [Example 383, N-(4-CHLOROPHENYL)-N-METHYL-4-PHENYL-8-(TRIFLUOROMETHYL)QUINOLINE-3-CARBOXAMIDE] | 177 to 179 °C
CN(C(=O)c1cnc2c(C(F)(F)F)cccc2c1-c1ccccc1)c1cccc(Cl)c1 [Example 384, N-(3-CHLOROPHENYL)-N-METHYL-4-PHENYL-8-(TRIFLUOROMETHYL)QUINOLINE-3-CARBOXAMIDE] | 211 to 213 °C
CCc1ccc(N(C)C(=O)c2cnc3c(C(F)(F)F)cccc3c2-c2ccccc2)cc1 [Example 385, N-(4-ETHYLPHENYL)-N-METHYL-4-PHENYL-8-(TRIFLUOROMETHYL)QUINOLINE-3-CARBOXAMIDE] | 136 to 138 °C
CCc1cccc(N(C)C(=O)c2cnc3c(C(F)(F)F)cccc3c2-c2ccccc2)c1 [Example 386, N-(3-ETHYLPHENYL)-N-METHYL-4-PHENYL-8-(TRIFLUOROMETHYL)QUINOLINE-3-CARBOXAMIDE] | 144 to 146 °C
COc1ccccc1N(C)C(=O)c1cnc2c(C(F)(F)F)cccc2c1-c1ccccc1 [Example 387, N-(2-METHOXYPHENYL)-N-METHYL-4-PHENYL-8-(TRIFLUOROMETHYL)QUINOLINE-3-CARBOXAMIDE] | 138 °C
CN(C(=O)c1cnc2c(C(F)(F)F)cccc2c1-c1ccccc1)c1ccc(F)cc1 [Example 388, N-(4-FLUOROPHENYL)-N-METHYL-4-PHENYL-8-(TRIFLUOROMETHYL)QUINOLINE-3-CARBOXAMIDE] | 138 to 140 °C
CN(C(=O)c1cnc2c(C(F)(F)F)cccc2c1-c1ccccc1)c1cccc(F)c1 [Example 389, N-(3-FLUOROPHENYL)-N-METHYL-4-PHENYL-8-(TRIFLUOROMETHYL)QUINOLINE-3-CARBOXAMIDE] | 200 to 202 °C
FC(F)(F)c1cccc2c(-c3ccccc3)c(-c3ccccc3)cnc12 [Example 390, 3,4-DIPHENYL-8-(TRIFLUOROMETHYL)QUINOLINE] | 138 to 140 °C
Oc1cccc(-c2c(-c3ccccc3)cnc3c(C(F)(F)F)cccc23)c1 [Example 391, 3-[3-PHENYL-8-(TRIFLUOROMETHYL)QUINOLIN-4-YL]PHENOL] | 123 °C
